{"source": "the NIST ThermoML archive (doi:10.1016/j.fluid.2018.05.032)", "key": {"[1]": {"settings": "for vapor or sublimation pressure: Closed cell (Static) method"}, "[2]": {"test": "molar heat capacity at constant pressure", "settings": "101.33 kPa, Liquid, DSC"}, "[3]": {"test": "Molar enthalpy of transition or fusion", "settings": "Crystal; DSC"}}, "note": "Several values for one entry are separate records, joined by “and”; a condition that tells them apart may be missing. Equal entries are not always repeated. ± gives the expanded uncertainty stated by the source.", "data": [{"compound": "CCNCCO", "note": "[2-(ethylamino)ethanol]", "values": [{"measurement": "vapor or sublimation pressure", "setting": "[1]; 238.05 K, Crystal", "value": "5e-05 ± 9.4e-05 kPa and 4.9e-05 ± 9.4e-05 kPa and 4.8e-05 ± 9.4e-05 kPa"}, {"measurement": "vapor or sublimation pressure", "setting": "[1]; 243.07 K, Crystal", "value": "0.000113 ± 9.6e-05 kPa and 0.000112 ± 9.6e-05 kPa"}, {"measurement": "vapor or sublimation pressure", "setting": "[1]; 243.07 K, Metastable liquid", "value": "0.000222 ± 9.6e-05 kPa and 0.000223 ± 9.6e-05 kPa and 0.000221 ± 9.6e-05 kPa"}, {"measurement": "vapor or sublimation pressure", "setting": "[1]; 248.11 K, Metastable liquid", "value": "0.000424 ± 9.9e-05 kPa and 0.000423 ± 9.9e-05 kPa"}, {"measurement": "vapor or sublimation pressure", "setting": "[1]; 248.13 K, Crystal", "value": "0.000251 ± 9.8e-05 kPa and 0.000252 ± 9.8e-05 kPa"}, {"measurement": "vapor or sublimation pressure", "setting": "[1]; 248.14 K, Crystal", "value": "0.000253 ± 9.8e-05", "unit": "kPa"}, {"measurement": "vapor or sublimation pressure", "setting": "[1]; 253.13 K, Crystal", "value": "0.000545 ± 0.0001 kPa and 0.000544 ± 0.0001 kPa and 0.000546 ± 0.0001 kPa"}, {"measurement": "vapor or sublimation pressure", "setting": "[1]; 253.13 K, Metastable liquid", "value": "0.000783 ± 0.00011 kPa and 0.000784 ± 0.00011 kPa and 0.000781 ± 0.00011 kPa"}, {"measurement": "vapor or sublimation pressure", "setting": "[1]; 258.13 K, Crystal", "value": "0.001146 ± 0.00011", "unit": "kPa"}, {"measurement": "vapor or sublimation pressure", "setting": "[1]; 258.13 K, Metastable liquid", "value": "0.001403 ± 0.00012 kPa and 0.001401 ± 0.00012 kPa"}, {"measurement": "vapor or sublimation pressure", "setting": "[1]; 258.14 K, Crystal", "value": "0.001142 ± 0.00011 kPa and 0.001139 ± 0.00011 kPa"}, {"measurement": "vapor or sublimation pressure", "setting": "[1]; 258.14 K, Metastable liquid", "value": "0.001403 ± 0.00012", "unit": "kPa"}, {"measurement": "vapor or sublimation pressure", "setting": "[1]; 263.13 K, Metastable liquid", "value": "0.002453 ± 0.00014", "unit": "kPa"}, {"measurement": "vapor or sublimation pressure", "setting": "[1]; 263.14 K, Crystal", "value": "0.002334 ± 0.00014 kPa and 0.002326 ± 0.00014 kPa and 0.00232 ± 0.00014 kPa"}, {"measurement": "vapor or sublimation pressure", "setting": "[1]; 263.14 K, Metastable liquid", "value": "0.002454 ± 0.00014", "unit": "kPa"}, {"measurement": "vapor or sublimation pressure", "setting": "[1]; 268.14 K, Liquid", "value": "0.004201 ± 0.00019 kPa and 0.004205 ± 0.00019 kPa and 0.004206 ± 0.00019 kPa"}, {"measurement": "vapor or sublimation pressure", "setting": "[1]; 273.14 K, Liquid", "value": "0.007045 ± 0.00029 kPa and 0.007039 ± 0.00029 kPa and 0.007052 ± 0.00029 kPa"}, {"measurement": "vapor or sublimation pressure", "setting": "[1]; 278.14 K, Liquid", "value": "0.01158 ± 0.00046", "unit": "kPa"}, {"measurement": "vapor or sublimation pressure", "setting": "[1]; 283.14 K, Liquid", "value": "0.01862 ± 0.0006 kPa and 0.01863 ± 0.0006 kPa"}, {"measurement": "vapor or sublimation pressure", "setting": "[1]; 288.14 K, Liquid", "value": "0.02935 ± 0.00077 kPa and 0.02936 ± 0.00077 kPa and 0.02934 ± 0.00077 kPa"}, {"measurement": "vapor or sublimation pressure", "setting": "[1]; 293.13 K, Liquid", "value": "0.04545 ± 0.001 kPa and 0.04543 ± 0.001 kPa"}, {"measurement": "vapor or sublimation pressure", "setting": "[1]; 298.14 K, Liquid", "value": "0.06913 ± 0.0014 kPa and 0.06915 ± 0.0014 kPa"}, {"measurement": "vapor or sublimation pressure", "setting": "[1]; 303.13 K, Liquid", "value": "0.1034 ± 0.0019", "unit": "kPa"}, {"measurement": "vapor or sublimation pressure", "setting": "[1]; 303.14 K, Liquid", "value": "0.1035 ± 0.0019", "unit": "kPa"}, {"measurement": "vapor or sublimation pressure", "setting": "[1]; 308.14 K, Liquid", "value": "0.1525 ± 0.0022", "unit": "kPa"}, {"measurement": "Normal melting temperature", "setting": "[1]; Crystal, DTA", "value": "-9.2 ± 0.7", "unit": "°C"}, {"measurement": "molar heat capacity at constant pressure", "setting": "[2]; 265 K", "value": "215.4 ± 8.3", "unit": "J/K/mol"}, {"measurement": "molar heat capacity at constant pressure", "setting": "[2]; 270 K", "value": "217.1 ± 8.4", "unit": "J/K/mol"}, {"measurement": "molar heat capacity at constant pressure", "setting": "[2]; 275 K", "value": "218.8 ± 8.5", "unit": "J/K/mol"}, {"measurement": "molar heat capacity at constant pressure", "setting": "[2]; 280 K", "value": "220.3 ± 8.5", "unit": "J/K/mol"}, {"measurement": "molar heat capacity at constant pressure", "setting": "[2]; 285 K", "value": "222 ± 8.6", "unit": "J/K/mol"}, {"measurement": "molar heat capacity at constant pressure", "setting": "[2]; 290 K", "value": "223.6 ± 8.7", "unit": "J/K/mol"}, {"measurement": "molar heat capacity at constant pressure", "setting": "[2]; 295 K", "value": "225.5 ± 8.7", "unit": "J/K/mol"}, {"measurement": "molar heat capacity at constant pressure", "setting": "[2]; 300 K", "value": "227.7 ± 8.8", "unit": "J/K/mol"}, {"measurement": "molar heat capacity at constant pressure", "setting": "[2]; 305 K", "value": "229.9 ± 8.9", "unit": "J/K/mol"}, {"measurement": "molar heat capacity at constant pressure", "setting": "[2]; 310 K", "value": "232.1 ± 9", "unit": "J/K/mol"}, {"measurement": "molar heat capacity at constant pressure", "setting": "[2]; 315 K", "value": "234.6 ± 9.1", "unit": "J/K/mol"}, {"measurement": "molar heat capacity at constant pressure", "setting": "[2]; 320 K", "value": "237 ± 9.2", "unit": "J/K/mol"}, {"measurement": "molar heat capacity at constant pressure", "setting": "[2]; 325 K", "value": "239.5 ± 9.3", "unit": "J/K/mol"}, {"measurement": "molar heat capacity at constant pressure", "setting": "[2]; 330 K", "value": "242 ± 9.4", "unit": "J/K/mol"}, {"measurement": "molar heat capacity at constant pressure", "setting": "[2]; 335 K", "value": "244.4 ± 9.5", "unit": "J/K/mol"}, {"measurement": "molar heat capacity at constant pressure", "setting": "[2]; 340 K", "value": "247 ± 9.6", "unit": "J/K/mol"}, {"measurement": "molar heat capacity at constant pressure", "setting": "[2]; 345 K", "value": "249.9 ± 9.7", "unit": "J/K/mol"}, {"measurement": "molar heat capacity at constant pressure", "setting": "[2]; 350 K", "value": "252.9 ± 9.8", "unit": "J/K/mol"}, {"measurement": "molar heat capacity at constant pressure", "setting": "[2]; 355 K", "value": "255.9 ± 9.9", "unit": "J/K/mol"}, {"measurement": "Molar enthalpy of transition or fusion", "setting": "[3]", "value": "3.94 ± 0.167", "unit": "kcal/mol"}]}]}
